Earlier results on one molecule are cited in patent US6863905B1, “Enhanced iodine treatment of drinking water” (Shanbrom Technologies, LLC, priority 2002, dated 2005).

For the data set the following is noted: at 20° C.

Molecules are shown by their SMILES. Converted amounts (≈) assume the structure as drawn.

`II` [iodine]: the solubility in water was 0.3 mg/mL (≈ 1180 µM).
